Data as given in ChEMBL document CHEMBL1137165, “Rational design of potent and selective NH-linked aryl/heteroaryl cathepsin K inhibitors” (Bioorg Med Chem Lett, 2004).
pIC50: −log10 of the molar value.

Target: Procathepsin L (Homo sapiens, UniProt P07711)
Experiment: Inhibitory concentration against human cathepsin L

Procathepsin L, sequence (P07711 whole entry): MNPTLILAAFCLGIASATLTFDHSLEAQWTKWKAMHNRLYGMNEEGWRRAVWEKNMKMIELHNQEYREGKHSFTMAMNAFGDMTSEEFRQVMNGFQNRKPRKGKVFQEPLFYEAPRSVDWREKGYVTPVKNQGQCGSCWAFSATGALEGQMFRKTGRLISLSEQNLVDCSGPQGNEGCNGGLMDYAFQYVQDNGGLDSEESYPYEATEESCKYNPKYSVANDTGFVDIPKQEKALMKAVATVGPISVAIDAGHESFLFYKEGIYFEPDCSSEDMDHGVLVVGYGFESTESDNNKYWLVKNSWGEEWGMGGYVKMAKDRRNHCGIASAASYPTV

Row | pIC50 | SMILES
1 | 6.45 | CC(C)C[C@H](Nc1cscc1-c1ccc(N2CCNCC2)cc1)C(=O)NCC#N
2 | 6.97 | CC(C)C[C@H](Nc1cccc(-c2ccc(N3CCNCC3)cc2)c1)C(=O)NCC#N
3 | 5.68 | CC(C)C[C@H](Nc1ccccc1-c1ccc(N2CCNCC2)cc1)C(=O)NCC#N
4 | 6.94 | CC(C)C[C@H](Nc1ccc(-c2ccc(N3CCNCC3)cc2)cc1)C(=O)NCC#N
5 | 6.34 | CC(C)C[C@H](Nc1cscc1Br)C(=O)NCC#N

Target: Cathepsin K (Oryctolagus cuniculus, UniProt P43236)
Experiment: Inhibitory concentration against humanized rabbit cathepsin K

Row | SMILES | pIC50
6 | CC(C)CC(Nc1ccc(Br)cc1)C(=O)NCC#N (stereo not given) | 6.68
7 | CC(C)CC(Oc1ccc(Br)cc1)C(=O)NCC#N (stereo not given) | 5.52
8 | CC(C)CC(Cc1ccc(Br)cc1)C(=O)NCC#N (stereo not given) | 5.62
9 | CC(C)CC(Oc1ccccc1Br)C(=O)NCC#N (stereo not given) | 5.94
10 | CC(C)CC(Sc1cccc(Br)c1)C(=O)NCC#N (stereo not given) | 6.16
11 | CC(C)CC(Sc1ccc(Br)cc1)C(=O)NCC#N (stereo not given) | 6.17
12 | CC(C)CC(Nc1cccc(Br)c1)C(=O)NCC#N (stereo not given) | 7.14
13 | CC(C)CC(Oc1cccc(Br)c1)C(=O)NCC#N (stereo not given) | 5.83
14 | CC(C)CC(Cc1ccccc1Br)C(=O)NCC#N (stereo not given) | 5.63
15 | CC(C)CC(Sc1ccccc1Br)C(=O)NCC#N (stereo not given) | 6.36
16 | CC(C)CC(Cc1cccc(Br)c1)C(=O)NCC#N (stereo not given) | 5.47

Molecules with a higher pIC50, results first:

Row | pIC50 | SMILES
17 | 9.00 | CC(C)C[C@H](Nc1cscc1-c1ccc(N2CCNCC2)cc1)C(=O)NCC#N
18 | 8.70 | CC(C)C[C@H](Nc1cccc(-c2ccc(N3CCNCC3)cc2)c1)C(=O)NCC#N
19 | 8.52 | CC(C)C[C@H](Nc1ccccc1-c1ccc(N2CCNCC2)cc1)C(=O)NCC#N
20 | 7.27 | CC(C)CC(Nc1ccccc1Br)C(=O)NCC#N (stereo not given)
21 | 7.57 | CC(C)C[C@H](Nc1ccc(-c2ccc(N3CCNCC3)cc2)cc1)C(=O)NCC#N
22 | 7.37 | CC(C)C[C@H](Nc1cscc1Br)C(=O)NCC#N
23 | 7.96 | CC(C)C[C@@H](C(=O)NCC#N)c1cccc(-c2ccc(N3CCNCC3)cc2)c1

Target: Cathepsin B (Homo sapiens, UniProt P07858)
Experiment: Inhibitory concentration against human cathepsin B

Row | pIC50 | SMILES
24 | 6.91 | CC(C)C[C@H](Nc1cscc1-c1ccc(N2CCNCC2)cc1)C(=O)NCC#N
25 | 7.03 | CC(C)C[C@H](Nc1cccc(-c2ccc(N3CCNCC3)cc2)c1)C(=O)NCC#N
26 | 5.74 | CC(C)C[C@H](Nc1ccccc1-c1ccc(N2CCNCC2)cc1)C(=O)NCC#N
27 | 7.59 | CC(C)C[C@H](Nc1ccc(-c2ccc(N3CCNCC3)cc2)cc1)C(=O)NCC#N
28 | 6.80 | CC(C)C[C@H](Nc1cscc1Br)C(=O)NCC#N

Tested on: not listed separately
Experiment: Compound was evaluated for its increased potency in bone resorption assay
Format: functional

Row | SMILES | Activity [nM]
29 | CC(C)C[C@H](Nc1cscc1-c1ccc(N2CCNCC2)cc1)C(=O)NCC#N | 10
30 | CC(C)C[C@H](Nc1cccc(-c2ccc(N3CCNCC3)cc2)c1)C(=O)NCC#N | 61
31 | CC(C)C[C@H](Nc1ccccc1-c1ccc(N2CCNCC2)cc1)C(=O)NCC#N | 9
32 | CC(C)C[C@H](Nc1ccc(-c2ccc(N3CCNCC3)cc2)cc1)C(=O)NCC#N | 37
33 | CC(C)C[C@H](Nc1cscc1Br)C(=O)NCC#N | 71
34 | CC(C)C[C@@H](C(=O)NCC#N)c1cccc(-c2ccc(N3CCNCC3)cc2)c1 | 95

Target: T1, Cathepsin K (Homo sapiens, UniProt P43235)
T1 sequence (P43235 whole entry): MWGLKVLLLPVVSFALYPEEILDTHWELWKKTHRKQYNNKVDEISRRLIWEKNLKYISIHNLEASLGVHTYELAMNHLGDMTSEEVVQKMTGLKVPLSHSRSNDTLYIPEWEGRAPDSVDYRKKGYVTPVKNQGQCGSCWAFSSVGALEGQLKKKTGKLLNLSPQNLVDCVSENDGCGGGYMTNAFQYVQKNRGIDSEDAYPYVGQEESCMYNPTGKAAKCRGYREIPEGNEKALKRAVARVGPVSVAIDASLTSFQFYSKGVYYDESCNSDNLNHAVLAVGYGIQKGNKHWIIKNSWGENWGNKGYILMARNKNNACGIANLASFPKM
Experiment: Inhibitory concentration against human cathepsin K

Row | pIC50 | SMILES
35 | 9.70 | CC(C)C[C@H](Nc1cscc1-c1ccc(N2CCNCC2)cc1)C(=O)NCC#N

Target: Cathepsin S (Homo sapiens, UniProt P25774)
Experiment: Inhibitory concentration against human cathepsin S

Cathepsin S, sequence (P25774 whole entry): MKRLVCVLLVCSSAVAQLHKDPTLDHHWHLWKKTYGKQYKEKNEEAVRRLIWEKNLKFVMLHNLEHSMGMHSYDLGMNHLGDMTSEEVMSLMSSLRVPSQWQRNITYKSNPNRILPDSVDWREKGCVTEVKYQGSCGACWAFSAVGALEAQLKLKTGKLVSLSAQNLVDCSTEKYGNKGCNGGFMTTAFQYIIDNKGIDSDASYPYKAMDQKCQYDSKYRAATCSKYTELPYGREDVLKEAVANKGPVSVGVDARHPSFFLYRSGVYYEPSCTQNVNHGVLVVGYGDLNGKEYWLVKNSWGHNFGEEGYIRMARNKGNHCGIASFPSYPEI

Row | pIC50 | SMILES
36 | 6.99 | CC(C)C[C@H](Nc1cscc1-c1ccc(N2CCNCC2)cc1)C(=O)NCC#N
37 | 7.62 | CC(C)C[C@H](Nc1cccc(-c2ccc(N3CCNCC3)cc2)c1)C(=O)NCC#N
38 | 6.80 | CC(C)C[C@H](Nc1ccccc1-c1ccc(N2CCNCC2)cc1)C(=O)NCC#N
39 | 7.47 | CC(C)C[C@H](Nc1ccc(-c2ccc(N3CCNCC3)cc2)cc1)C(=O)NCC#N
40 | 6.05 | CC(C)C[C@H](Nc1cscc1Br)C(=O)NCC#N
